Assay results reported in PubChem BioAssay (NCI).
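48-hour exposure; five concentrations; linearly interpolated endpoints. TGI: total growth inhibition.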

Experiments:
Experiment in all cases: DTP human tumour cell line panel, 48 h
[1] = tested on: A498 renal
[2] = tested on: A549 NSCLC
[3] = tested on: ACHN renal
[4] = tested on: HCC-2998 colon
[5] = tested on: MALME-3M melanoma
[6] = tested on: MDA-MB-231 breast
[7] = tested on: NCI-H460 lung
[8] = tested on: SK-MEL-2 melanoma
[9] = tested on: SK-MEL-5 melanoma
[10] = tested on: SN12C renal
[11] = tested on: UACC-257 melanoma

Row | Structure (SMILES) | TGI [1] [µM] | TGI [2] [µM] | TGI [3] [µM] | TGI [4] [µM] | TGI [5] [µM] | TGI [6] [µM] | TGI [7] [µM] | TGI [8] [µM] | TGI [9] [µM] | TGI [10] [µM] | TGI [11] [µM]
1 | Cc1cccc(NC(=S)NNC(=O)c2cc(-c3ccccc3)nc3ccccc23)c1 | 47.6 | 70.7 | > 100 | 57.3 | 83.8 | 95 | 85.9 | 45.8 | 39 | > 100 | > 100
2 | Cc1[nH]c2c(C)c3c([nH]c4ccc(Cl)cc43)c(C)c2c(=O)c1C | 51.9 | 10 | 11.6 | 16.5 | 72.8 | 7.54 | 13.5 | > 100 | 42.2 | 15.1 | > 100
3 | NC1=Nc2ncccc2C(=O)NN1 | > 10 | > 10 | > 10 | > 10 | > 10 | > 10 | > 10 | > 10 | > 10 | > 10 | > 10
4 | COc1cccc(C2c3cc4c(cc3OC(NNS(=O)(=O)c3ccc(C)cc3)C2C)OCO4)c1O (stereo not given) | 70.4 | > 100 | > 100 | > 100 | 64.4 | 49.2 | 82 | 53 | 42 | > 100 | > 100
5 | CNC(=O)OC1/C(C)=C\C(C)C(O)C(OC)CC(C)CC2=C(OC)C(=O)C=C(C2=O)N(C)C(=O)/C(C)=C/C=C\C1OC (stereo not given) | 42.8 | 43.7 | 20.9 | 21.4 | 27.1 | 6.44 | 39.7 | 21.9 | 21.5 | 16.5 | 19
6 | COc1ccc(/C=N/n2c(-c3ccccc3)n[nH]c2=O)c(OC)c1 | > 73.4 | > 100 | > 75.5 | > 100 | > 100 | > 100 | > 100 | > 100 | > 100 | > 100 | > 100
7 | Cc1ccc([N+](=O)[O-])cc1S(=O)(=O)Nc1ccc(C2=NN(S(=O)(=O)c3cc([N+](=O)[O-])ccc3C)C(c3ccccc3O)C2)cc1 (stereo not given) | 83.9 | > 100 | > 100 | > 100 | > 100 | > 100 | > 100 | > 100 | > 100 | > 100 | > 100
8 | Cc1c(CCCl)c(Cl)n2c(nc3ccccc32)c1C#N | 2.83 | > 100 | 2.14 | 2.94 | 2.62 | 17.9 | 1.69 | 2.78 | 2.35 | 1.5 | 3.07
9 | CN(CCNC(=O)c1nn(C)c2c1Cc1ccccc1-2)CCNC(=O)c1nn(C)c2c1Cc1ccccc1-2 | 28.7 | 33.3 | 28.4 | 25.5 | 29.8 | 38.1 | 31.7 | 28.6 | 24.5 | 30.8 | 27.5
10 | CC(C)C1OC(=O)C(Cc2ccccc2)N(C)C(=O)C(C(C)C)OC(=O)C(Cc2ccccc2)N(C)C(=O)C(C(C)C)OC(=O)C(Cc2ccccc2)N(C)C1=O (stereo not given) | 6.53 | 1.87 | 1.64 | 1.99 | 1.29 | 2.67 | 2.44 | 1.36 | 1.08 | 2.14 | 2
11 | CCOC(=O)c1cccc(N=NNc2cccc(C(=O)OCC)c2)c1 | 86.1 | > 100 | > 100 | > 100 | > 100 | 53.3 | > 100 | > 100 | > 100 | 73.5 | > 100
12 | COC(=O)c1sc2c(c1C(=O)OC)C(=Nc1ccc(OC)cc1)SC2=Nc1ccc(OC)cc1 | 3.01 | 2.68 | 2.51 | 3.17 | 3.65 | 2.35 | 2.79 | 1.48 | 2.54 | 1.94 | 2.75
13 | COc1ccc(Cl)cc1NC(=O)O/N=C(\Cl)C(C)C | 46.8 | 37.9 | 4.21 | 35.7 | 5.28 | 15.1 | 37.6 | 33.9 | > 44.5 | 23.4 | 35.9
14 | COc1cc2c(cc1C)NC(=O)/C2=C/c1c(Cl)[nH]c2ccccc12 | 16.6 | > 100 | 22.4 | 15.4 | 15.3 | 16.9 | 17.1 | 8.56 | 11.4 | 16.7 | 22.8
15 | Clc1ccc(Cc2nc3cc(Cl)c(Cl)cc3n2CC2CCCN3CCCCC23)cc1 (stereo not given) | 27.5 | 26.2 | 22.2 | 14.6 | 20.9 | 19.3 | 23.2 | 29.8 | 23.3 | 25.4 | 13
16 | CC(C)C(Sc1nc(N)nc2nc[nH]c12)C(=O)O (stereo not given) | > 100 | > 100 | > 100 | > 100 | > 100 | > 100 | > 100 | > 100 | > 100 | > 100 | > 100
17 | N#CC1=C(N)OC2=C(CCCc3ccc([N+](=O)[O-])cc32)C1c1ccc(Cl)cc1 (stereo not given) | 35.5 | > 100 | 46.5 | 52.3 | 31.4 | > 100 | 15.7 | 54.7 | 15.7 | 6.78 | > 100
18 | CCc1nnc2sc(-c3ccc(-c4ccccc4[N+](=O)[O-])o3)nn12 | > 100 | > 100 | > 100 | > 100 | > 100 | > 100 | > 100 | 95.7 | 65.9 | > 100 | > 100
19 | O=C1c2cccc3cc([N+](=O)[O-])cc(c23)C(=O)N1c1ccc(OCCN2CCCC2)cc1 | 32.2 | 20.6 | 28.1 | 33.5 | 30.9 | > 100 | 21.3 | 54.3 | 30.1 | > 100 | 36.1
20 | O=[N+]([O-])C(/C=C(\Cl)[N+](=O)[O-])=C(N1CCOCC1)N1CCOCC1 | 51.5 | 39.3 | > 100 | 43 | 70.3 | 43.7 | > 100 | > 100 | > 100 | > 100 | > 100
21 | O=C(OC1C#CCSCC#C/C=C\1)c1ccc2c(c1)C(=O)c1ccccc1C2=O (stereo not given) | > 100 | > 100 | > 100 | > 100 | > 100 | 82.4 | > 100 | > 100 | > 100 | > 100 | > 100
22 | Cc1ccc(NC(c2ccccc2)P(=O)(c2ccccc2)c2ccccc2)cc1 (stereo not given) | > 100 | > 100 | > 100 | > 100 | > 100 | > 100 | > 100 | > 100 | > 100 | > 100 | > 100
23 | Cc1ccc(-c2ccc3c(c2)Sc2ccccc2O3)n1C | 34 | > 100 | > 100 | 0.625 | 50 | > 100 | > 36.5 | 4.26 | 39.1 | 7.88 | > 100
24 | C=CCN(C(C)=O)c1cc(OCc2ccccc2)c2c(c1)c(C)cn2S(=O)(=O)c1ccccc1 | 26.3 | > 100 | 51.4 | > 100 | 34.2 | > 70.8 | > 100 | 12.3 | 21.5 | > 100 | > 100
25 | O=C1c2ccccc2CC12Cc1ccc3c(c1C2=O)CCCC3 (stereo not given) | > 100 | > 100 | > 100 | > 100 | > 100 | 86 | > 100 | > 100 | > 100 | > 100 | > 100
26 | O=C1OCOC2(CCCC2)C1c1ccccc1 (stereo not given) | > 100 | > 100 | > 100 | > 100 | > 100 | > 100 | > 100 | > 100 | > 100 | > 100 | > 100
27 | CC(C)=CC(=O)c1[nH]c2ccccc2c1CC(=O)NCCc1cnc[nH]1 | > 100 | > 100 | > 100 | > 100 | > 100 | > 100 | > 100 | > 100 | > 100 | > 100 | > 100
28 | CC(=O)CC(O)(C(F)(F)Cl)C(F)(Cl)Cl (stereo not given) | > 10 | > 10 | > 10 | > 10 | > 10 | > 10 | > 10 | > 10 | > 10 | > 10 | > 10
29 | C=CCCCCCCCCCOC1C=CC(O)C(CO)O1 (stereo not given) | > 100 | > 100 | > 100 | > 100 | 73.3 | > 100 | 63.7 | > 100 | 48.1 | > 100 | 61.4
30 | CCOC(=O)/C(C(=O)c1ccc[nH]1)=C1/CCCN1C | > 100 | > 100 | > 100 | > 100 | > 100 | > 100 | > 100 | > 100 | > 100 | > 100 | > 100
